Reference: US5102877A, “1-azabicyclo[3.2.0]hept-2-ene-2-carboxylic acid compounds” (Fujisawa Pharmaceutical Co., Ltd., priority 1989, dated 1992)

Test system: S. aureus 6
Test: in vitro Antimicrobial Activity, two-fold agar-plate dilution method
Format: cell-based
Details: Staphylococcus aureus, heart infusion agar, 10^6 viable cells per ml, 37° C. for 20 hours, read-out: minimal inhibitory concentration (MIC)
Procedure: in vitro Antimicrobial Activity was determined by the two-fold agar-plate dilution method as described below.
One loopful of an overnight culture of a test strain in Trypticase-soy broth (10^6 viable cells per ml) was streaked on heart infusion agar (HI-agar) containing graded concentrations of the test compound, and the minimal inhibitory concentration (MIC) was expressed in terms of μg/ml after incubation at 37° C. for 20 hours.

MIC: ≤ 0.025 µg/mL
Structure (SMILES): C[C@@H](O)[C@H]1C(=O)N2C(C(=O)O)=C(C3CCN(C=N)C3)C[C@H]12 (stereo partly drawn) [Example 12, (5R,6S)-3-(1-formimidoylpyrrolidin-3-yl)-6-[(1R)-1-hydroxyethyl]-7-oxo-1-azabicyclo[3.2.0]hept-2-ene-2-carboxylic acid]
